Reference: PubChem BioAssay (NCI)
Values joined by “and” are separate entries in the source; they are usually repeats but may differ in a detail not shown here. Equal entries are not always repeated.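 In this assay, cells in 96-well plates receive the compound at five concentrations for 48 hours. Endpoints are linearly interpolated between the surrounding concentrations. At the GI50, growth is halved. TGI marks complete inhibition of growth.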

How the values were obtained:
Test in all cases: NCI tumour cell line growth inhibition, 48 h
HCC-2998 colon = test system: HCC-2998 colon
MOLT-4 leukemia = test system: MOLT-4 leukemia
SF-268 CNS = test system: SF-268 CNS
CAKI-1 renal = test system: CAKI-1 renal
OVCAR-5 ovarian = test system: OVCAR-5 ovarian
OVCAR-8 ovarian = test system: OVCAR-8 ovarian
TK-10 renal = test system: TK-10 renal
SR leukemia = test system: SR leukemia
OVCAR-4 ovarian = test system: OVCAR-4 ovarian
NCI-H226 lung = test system: NCI-H226 lung

Q: How did the GI50 (HCC-2998 colon) turn out when Nc1c(C(=O)c2ccccc2)sc2nc(-c3cccs3)ccc12 was run?
A: 0.468 µM

Q: What about the TGI (HCC-2998 colon) of the same compound?
A: 4.25 µM

Q: What about the GI50 (MOLT-4 leukemia) of the same compound?
A: 0.0504 µM

Q: What about the TGI (MOLT-4 leukemia) of the same compound?
A: 1.12 µM

Q: And the GI50 (SF-268 CNS)?
A: 0.664 µM

Q: What about the TGI (SF-268 CNS) of the same compound?
A: 15.5 µM

Q: And the GI50 (CAKI-1 renal)?
A: 0.564 µM

Q: What about the TGI (CAKI-1 renal) of the same compound?
A: 20.1 µM

Q: What about the GI50 (OVCAR-5 ovarian) of the same compound?
A: 1.8 µM

Q: And the TGI (OVCAR-5 ovarian)?
A: 14.5 µM

Q: What about the GI50 (OVCAR-8 ovarian) of the same compound?
A: 0.453 µM

Q: What about the TGI (OVCAR-8 ovarian) of the same compound?
A: > 100 µM

Q: What about the GI50 (TK-10 renal) of the same compound?
A: 0.414 µM

Q: And the TGI (TK-10 renal)?
A: 5.79 µM

Q: And the GI50 (SR leukemia)?
A: 0.0668 µM

Q: What about the TGI (SR leukemia) of the same compound?
A: 4.16 µM

Q: And the GI50 (OVCAR-4 ovarian)?
A: 0.902 µM

Q: And the TGI (OVCAR-4 ovarian)?
A: 6.72 µM

Q: And the GI50 (NCI-H226 lung)?
A: 2.11 µM

Q: And the TGI (NCI-H226 lung)?
A: 12.5 µM

Q: What does the source list for NC(=O)c1c[se]c(C2OC(CO)C(O)C2O)n1 (centres undefined)?
A: TGI (HCC-2998 colon): > 100 µM; TGI (MOLT-4 leukemia): > 49 µM; TGI (SF-268 CNS): > 100 µM; TGI (CAKI-1 renal): > 100 µM; TGI (OVCAR-5 ovarian): > 100 µM; TGI (OVCAR-8 ovarian): > 100 µM; TGI (TK-10 renal): > 100 µM; TGI (SR leukemia): > 100 µM; TGI (OVCAR-4 ovarian): > 100 µM; TGI (NCI-H226 lung): > 100 µM

Q: With CC(=O)OCC1OC(n2c(-c3ccccc3)cc(-c3ccco3)c(C#N)c2=O)C(OC(C)=O)C(OC(C)=O)C1OC(C)=O (centres undefined) as the compound, how does the TGI (HCC-2998 colon) read?
A: > 100 µM

Q: And the TGI (MOLT-4 leukemia)?
A: > 100 µM

Q: And the GI50 (SF-268 CNS)?
A: 17.4 µM and 35 µM

Q: What about the TGI (SF-268 CNS) of the same compound?
A: 64.2 µM and > 100 µM

Q: And the TGI (CAKI-1 renal)?
A: > 100 µM

Q: What about the TGI (OVCAR-5 ovarian) of the same compound?
A: > 100 µM

Q: What about the TGI (OVCAR-8 ovarian) of the same compound?
A: > 100 µM

Q: And the TGI (TK-10 renal)?
A: > 100 µM

Q: What about the GI50 (SR leukemia) of the same compound?
A: > 100 µM and 46.1 µM

Q: And the TGI (SR leukemia)?
A: > 100 µM

Q: And the TGI (OVCAR-4 ovarian)?
A: > 100 µM

Q: And the TGI (NCI-H226 lung)?
A: > 100 µM

Q: Which TGI (HCC-2998 colon) does the source give for Oc1ccc(N=Nc2ccc(Cl)cc2)cc1 here?
A: 29.8 µM

Q: What about the TGI (MOLT-4 leukemia) of the same compound?
A: 51.7 µM

Q: What about the TGI (SF-268 CNS) of the same compound?
A: 34.5 µM

Q: What about the TGI (CAKI-1 renal) of the same compound?
A: 36.6 µM

Q: And the TGI (OVCAR-5 ovarian)?
A: 32.2 µM

Q: What about the TGI (OVCAR-8 ovarian) of the same compound?
A: 38.2 µM

Q: What about the TGI (TK-10 renal) of the same compound?
A: 33.8 µM

Q: What about the TGI (SR leukemia) of the same compound?
A: 54.8 µM

Q: And the TGI (OVCAR-4 ovarian)?
A: 61 µM

Q: What about the TGI (NCI-H226 lung) of the same compound?
A: 35.6 µM

Q: Which results are given for COc1cc2nc(-c3ccc(C(F)(F)F)cc3)cc(OCCCN3CCOCC3)c2cc1OC?
A: GI50 (HCC-2998 colon): 1.41 µM; TGI (HCC-2998 colon): 5.57 µM; GI50 (MOLT-4 leukemia): 2.51 µM; TGI (MOLT-4 leukemia): 14.9 µM; GI50 (SF-268 CNS): 5.7 µM; TGI (SF-268 CNS): 27.9 µM; GI50 (CAKI-1 renal): 0.167 µM; TGI (CAKI-1 renal): 11.2 µM; GI50 (OVCAR-5 ovarian): 1.92 µM; TGI (OVCAR-5 ovarian): 18.8 µM; GI50 (OVCAR-8 ovarian): 1.95 µM; TGI (OVCAR-8 ovarian): 28.8 µM; GI50 (TK-10 renal): 13.9 µM; TGI (TK-10 renal): 30.6 µM; GI50 (SR leukemia): 0.242 µM; TGI (SR leukemia): 14.3 µM; GI50 (OVCAR-4 ovarian): 10.3 µM; TGI (OVCAR-4 ovarian): 23.2 µM; GI50 (NCI-H226 lung): 0.406 µM; TGI (NCI-H226 lung): 4.87 µM

Q: Which results are given for CCC(=O)c1cn(C)c(=O)c2ccccc12?
A: TGI (HCC-2998 colon): > 100 µM; TGI (MOLT-4 leukemia): > 100 µM; TGI (SF-268 CNS): > 100 µM; TGI (CAKI-1 renal): > 100 µM; TGI (OVCAR-5 ovarian): > 100 µM; TGI (OVCAR-8 ovarian): > 100 µM; TGI (TK-10 renal): > 100 µM; TGI (SR leukemia): > 100 µM; TGI (OVCAR-4 ovarian): > 100 µM; TGI (NCI-H226 lung): > 100 µM

Q: How did the GI50 (HCC-2998 colon) turn out when O=c1ccn(C2OC(CO)C(O)C2O)c(=O)[nH]1 (centres undefined) was run?
A: > 1000 µM

Q: And the TGI (HCC-2998 colon)?
A: > 1000 µM

Q: And the GI50 (MOLT-4 leukemia)?
A: 832 µM and > 10 µM

Q: And the TGI (MOLT-4 leukemia)?
A: > 1000 µM

Q: What about the GI50 (SF-268 CNS) of the same compound?
A: > 1000 µM

Q: What about the TGI (SF-268 CNS) of the same compound?
A: > 1000 µM

Q: And the TGI (CAKI-1 renal)?
A: > 1000 µM

Q: And the TGI (OVCAR-5 ovarian)?
A: > 1000 µM

Q: What about the GI50 (OVCAR-8 ovarian) of the same compound?
A: > 1000 µM

Q: What about the TGI (OVCAR-8 ovarian) of the same compound?
A: > 1000 µM

Q: What about the GI50 (TK-10 renal) of the same compound?
A: > 1000 µM

Q: And the TGI (TK-10 renal)?
A: > 1000 µM

Q: And the GI50 (SR leukemia)?
A: > 1000 µM

Q: And the TGI (SR leukemia)?
A: > 1000 µM

Q: What about the GI50 (OVCAR-4 ovarian) of the same compound?
A: > 1000 µM

Q: And the TGI (OVCAR-4 ovarian)?
A: > 1000 µM

Q: And the TGI (NCI-H226 lung)?
A: > 1000 µM

Q: Which TGI (HCC-2998 colon) does the source give for COc1ccc(NC(=O)C2C(=O)N(c3ccc(OC)cc3)C(=O)/C2=N/O)cc1 (centres undefined) here?
A: 47.2 µM

Q: What about the TGI (MOLT-4 leukemia) of the same compound?
A: > 100 µM

Q: And the TGI (SF-268 CNS)?
A: 52.7 µM

Q: And the TGI (CAKI-1 renal)?
A: > 77.3 µM

Q: And the TGI (OVCAR-5 ovarian)?
A: > 100 µM

Q: And the TGI (OVCAR-8 ovarian)?
A: 32 µM

Q: What about the TGI (TK-10 renal) of the same compound?
A: 52.3 µM

Q: And the TGI (SR leukemia)?
A: > 100 µM

Q: And the TGI (OVCAR-4 ovarian)?
A: 31.6 µM

Q: What about the TGI (NCI-H226 lung) of the same compound?
A: 55.7 µM

Q: What does the source list for CC[N+](CCCCCCCCCC[N+](CC)(c1ccccn1)c1ccccn1)(c1ccccn1)c1ccccn1?
A: GI50 (HCC-2998 colon): 1.95 µM; TGI (HCC-2998 colon): 27.2 µM; GI50 (MOLT-4 leukemia): 2.28 µM; TGI (MOLT-4 leukemia): 13.2 µM; GI50 (SF-268 CNS): 1.02 µM; TGI (SF-268 CNS): 19.5 µM; GI50 (CAKI-1 renal): 2.61 µM; TGI (CAKI-1 renal): 9.92 µM; GI50 (OVCAR-5 ovarian): 1.86 µM; TGI (OVCAR-5 ovarian): 9.65 µM; GI50 (OVCAR-8 ovarian): 2.11 µM; TGI (OVCAR-8 ovarian): 57.5 µM; GI50 (TK-10 renal): 3.65 µM; TGI (TK-10 renal): 24.5 µM; GI50 (SR leukemia): 1.36 µM; TGI (SR leukemia): 22.1 µM; GI50 (OVCAR-4 ovarian): 1.01 µM; TGI (OVCAR-4 ovarian): > 100 µM; GI50 (NCI-H226 lung): 2.04 µM; TGI (NCI-H226 lung): 22.3 µM

Q: How did the TGI (HCC-2998 colon) turn out when COc1ccc(-c2c(C3=NCCN3)nnn2-c2ccccc2)cc1 was run?
A: > 100 µM

Q: And the TGI (MOLT-4 leukemia)?
A: > 100 µM

Q: And the TGI (SF-268 CNS)?
A: > 100 µM

Q: And the TGI (CAKI-1 renal)?
A: > 100 µM

Q: What about the TGI (OVCAR-5 ovarian) of the same compound?
A: > 100 µM

Q: And the TGI (OVCAR-8 ovarian)?
A: > 100 µM

Q: And the TGI (TK-10 renal)?
A: > 100 µM

Q: And the TGI (SR leukemia)?
A: > 100 µM

Q: And the TGI (OVCAR-4 ovarian)?
A: > 100 µM

Q: And the TGI (NCI-H226 lung)?
A: > 100 µM
